The results in this text go back to US20250042894A1, “PROTEIN TYROSINE PHOSPHATASE INHIBITORS AND METHODS OF USE THEREOF” (Calico Life Sciences LLC, priority 2021, published 2025).

Assay [1] addresses T1, His tagged PTPN2 (TC45) protein (Homo sapiens, UniProt P17706).
T1 construct: His; made in house
T1 sequence (P17706 1-387 isoform P17706-2): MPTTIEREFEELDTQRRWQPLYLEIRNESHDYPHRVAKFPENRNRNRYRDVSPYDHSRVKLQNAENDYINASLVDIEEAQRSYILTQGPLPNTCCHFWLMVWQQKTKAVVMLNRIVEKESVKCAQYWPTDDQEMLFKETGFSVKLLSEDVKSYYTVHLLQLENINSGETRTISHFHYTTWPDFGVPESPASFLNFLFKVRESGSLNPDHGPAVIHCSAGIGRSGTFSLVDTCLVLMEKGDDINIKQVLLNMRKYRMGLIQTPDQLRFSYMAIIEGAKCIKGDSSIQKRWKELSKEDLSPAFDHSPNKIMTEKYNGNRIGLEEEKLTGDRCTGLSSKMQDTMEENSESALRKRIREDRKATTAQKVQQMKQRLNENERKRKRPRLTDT
In words: Mobility Shift Assay (MSA) for PTPN2 inhibitors. The format is biochemical. Conditions: for Thiochromane x-fold>potency biochemical: PTPN2 MSA IC50 of chromane comparator over thiochromane. The essentials: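 Enzyme (0.5 nM) preincubated 10 min at RT with compound (12-point, 1:3 dilution) in 50 mM HEPES pH 7.5, 10 mM EDTA, 2 mM DTT; OG488-labelled phospho-insulin-receptor peptide substrate (2 μM) then added for 10 min. After quench, dephosphorylation measured by microfluidic mobility shift (ex 488/em 530 nm); IC50 from % inhibition.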

For assay [2], the system named is IFNγ-induced STAT1 phosphorylation (pSTAT1) in B16F10 cells. In words: B16F10 Phospho-STAT1 HTRF proximal pharmacodynamic (PD) assay. The assay is classed as cell-based, murine. Conditions: for EC50: B16-F10; for Thiochromane x-fold>potency cellular: pSTAT1 EC50 of chromane comparator over thiochromane. The essentials: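 Murine B16F10 melanoma cells dosed 3 h at 37 °C (10-point, 3-fold dilution from 50 μM top dose), then stimulated 10 min with recombinant mouse IFNγ (100 nM final) and stopped with 3.3 μM staurosporine for 1 h. pSTAT1 in lysates detected by HTRF (Eu cryptate/d2 antibodies, 3 h RT, 665 nm emission); EC50 from dose-response curves.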
Background: TR-FRET usually uses a lanthanide donor and a delayed reading to cut background.

In assay [3] the target is T2, His tagged full-length PTPN1 protein (Homo sapiens, UniProt P18031).
T2 construct: His; made in house
T2 sequence (P18031 1-435): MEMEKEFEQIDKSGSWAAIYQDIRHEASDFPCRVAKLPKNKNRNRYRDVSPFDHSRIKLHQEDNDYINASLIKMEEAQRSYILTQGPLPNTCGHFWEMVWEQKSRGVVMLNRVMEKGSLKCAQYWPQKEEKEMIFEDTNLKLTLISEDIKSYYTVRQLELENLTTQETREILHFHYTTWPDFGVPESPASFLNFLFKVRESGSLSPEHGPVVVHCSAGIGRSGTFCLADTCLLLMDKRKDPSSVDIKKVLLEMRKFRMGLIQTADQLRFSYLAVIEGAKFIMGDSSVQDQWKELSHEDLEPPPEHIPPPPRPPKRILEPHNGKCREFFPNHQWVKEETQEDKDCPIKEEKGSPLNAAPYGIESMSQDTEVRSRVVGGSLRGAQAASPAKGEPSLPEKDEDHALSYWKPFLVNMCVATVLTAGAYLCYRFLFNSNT
In words: Mobility Shift Assay (MSA) for PTPN1 inhibitors. The assay is classed as biochemical. The note with it: enzyme 0.5 nM, substrate 2 μM, 10 minutes preincubation at room temperature. Summed up:
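Full-length His-tagged human PTPN1 (0.5 nM) was pre-incubated 10 min at RT with compound (12-point, 1:3) in HEPES pH 7.5 buffer with EGTA, EDTA, Tween-20 and DTT. Fluorescent phospho-insulin-receptor peptide (2 μM) was then added for 10 min. After quench, dephosphorylation was measured by microfluidic mobility shift, and IC50 was taken from % inhibition.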

Where [4] appears, read: enzyme 0.5 nM, substrate 2 μM, 10 minutes preincubation at room temperature.
The mark [5] stands for this setting: Table 2, 3 hours compound, then mouse IFNγ 100 nM 10 minutes, top dose 50 μM, read-out: B16F10 IFNγ Induced pSTAT1 EC50.
Setting [6] is: Table 3, thiochromanes (X = S) and chromane comparators (X = O).
Setting [7] is: Mus musculus, Table 3, B16F10 cells, IFNγ-induced, thiochromanes (X = S) and chromane comparators (X = O), read-out: pSTAT1 EC50.

Read-outs that look alike come from different tables or passages of the source. Where only a bound is given, the exact number is not on record here.

Regarding `O=C1CN(c2c(O)cc3c(c2F)C[C@H](NCC2CCOCC2)CS3)S(=O)(=O)N1` [Compound 110, 5-[(3S)-5-fluoro-7-hydroxy-3-{[(oxan-4-yl)methyl]amino}-3,4-dihydro-2H-1-benzothiopyran-6-yl]-1λ^6,2,5-thiadiazolidine-1,1,3-trione], the half-maximal inhibitory concentration (IC50) in assay [1] (setting [4]) and in assay [3] was 10 to 100 nM each time. Besides, the 50% effective concentration (EC50) in assay [2] (setting [5]) was 6990 nM.
For the molecule `O=C1CN(c2c(O)cc3c(c2F)C[C@H](NCCC2CCCC2)CS3)S(=O)(=O)N1` [Compound 120, 5-{(3S)-3-[(2-cyclopentylethyl)amino]-5-fluoro-7-hydroxy-3,4-dihydro-2H-1-benzothiopyran-6-yl}-1λ^6,2,5-thiadiazolidine-1,1,3-trione], the concentration for half-maximal inhibition (IC50) in assay [1] (setting [4]) and in assay [3] was less than 10 nM in each case. Besides, in assay [2] (setting [5]), the EC50 worked out at 1010 nM.
Consider `O=C1CN(c2c(O)cc3c(c2F)C[C@H](NCCCC(F)F)CS3)S(=O)(=O)N1` [Compound 100, 5-{(3S)-3-[(4,4-difluorobutyl)amino]-5-fluoro-7-hydroxy-3,4-dihydro-2H-1-benzothiopyran-6-yl}-1λ^6,2,5-thiadiazolidine-1,1,3-trione], for which the “Thiochromane x-fold>potency biochemical” value in assay [1] (Table 3) is 3.4. The IC50 in assay [1] (setting [6]) was 2 nM; in assay [1] (setting [4]) it was less than 10 nM; in assay [3], less than 10 nM. Besides, the 50% effective concentration (EC50) in assay [2] (setting [5]) turned out to be 164 nM.
Regarding `CC(C)C(C)CN[C@@H]1CSc2cc(O)c(N3CC(=O)NS3(=O)=O)c(F)c2C1` (stereo partly drawn) [Compound 115, 5-{(3S)-3-[(2,3-dimethylbutyl)amino]-5-fluoro-7-hydroxy-3,4-dihydro-2H-1-benzothiopyran-6-yl}-1λ^6,2,5-thiadiazolidine-1,1,3-trione], the IC50 in assay [1] (setting [4]) and in assay [3] was less than 10 nM in each case. Also, the EC50 in assay [2] (setting [5]) came out at 1830 nM.
`O=C1CN(c2c(O)cc3c(c2F)C[C@H](NCC2CC2(F)F)CS3)S(=O)(=O)N1` (stereo partly drawn) [Compound 126, 5-[(3S)-3-{[(2,2-difluorocyclopropyl)methyl]amino}-5-fluoro-7-hydroxy-3,4-dihydro-2H-1-benzothiopyran-6-yl]-1λ^6,2,5-thiadiazolidine-1,1,3-trione]: the IC50 in assay [1] (setting [4]) and in assay [3] was 10 to 100 nM in each case. For the same molecule, the concentration giving a half-maximal response (EC50) in assay [2] (setting [5]) stood at 25500 nM.
Regarding `CC(CN[C@@H]1CSc2cc(O)c(N3CC(=O)NS3(=O)=O)c(F)c2C1)C1CC1` (stereo partly drawn) [Compound 133, 5-{(3S)-3-[(2-cyclopropylpropyl)amino]-5-fluoro-7-hydroxy-3,4-dihydro-2H-1-benzothiopyran-6-yl}-1λ^6,2,5-thiadiazolidine-1,1,3-trione], the IC50 in assay [1] (setting [4]) and in assay [3] was less than 10 nM each time. The EC50 in assay [2] (setting [5]) was 762 nM.
Take `O=C1CN(c2c(O)cc3c(c2F)C[C@H](NCC2CC2)CS3)S(=O)(=O)N1` [Compound 111, 5-{(3S)-3-[(cyclopropylmethyl)amino]-5-fluoro-7-hydroxy-3,4-dihydro-2H-1-benzothiopyran-6-yl}-1λ^6,2,5-thiadiazolidine-1,1,3-trione]: the half-inhibitory concentration (IC50) in assay [1] (setting [4]) and in assay [3] was 10 to 100 nM in each case. In addition, the concentration for a half-maximal effect (EC50) in assay [2] (setting [5]) was 7980 nM.
Turning to `O=C1CN(c2c(O)cc3c(c2F)C[C@H](NCCC2CCOCC2)CS3)S(=O)(=O)N1` [Compound 109, 5-[(3S)-5-fluoro-7-hydroxy-3-{[2-(oxan-4-yl)ethyl]amino}-3,4-dihydro-2H-1-benzothiopyran-6-yl]-1λ^6,2,5-thiadiazolidine-1,1,3-trione], in assay [1] (Table 3), the “Thiochromane x-fold>potency biochemical” value is recorded as 2.0. Further, the half-inhibitory concentration (IC50) was less than 10 nM in assay [1] (setting [4]) and 10 to 100 nM in assay [3]. In addition, the EC50 in assay [2] (setting [5]) and in assay [2] (setting [7]) was 6030 nM in each case. Further, in assay [2] (Table 3), the “Thiochromane x-fold>potency cellular” value is recorded as 5.3.
As for `O=C1CN(c2c(O)cc3c(c2F)C[C@H](NCCCc2ccccc2)CS3)S(=O)(=O)N1` [Compound 136, 5-{(3S)-5-fluoro-7-hydroxy-3-[(3-phenylpropyl)amino]-3,4-dihydro-2H-1-benzothiopyran-6-yl}-1λ^6,2,5-thiadiazolidine-1,1,3-trione], the “Thiochromane x-fold>potency biochemical” value in assay [1] (Table 3) came out at 0.8. Further, the IC50 in assay [1] (setting [4]) and in assay [3] was 10 to 100 nM throughout. For the same molecule, the concentration for a half-maximal effect (EC50) in assay [2] (setting [5]) and in assay [2] (setting [7]) was 27600 nM throughout. The “Thiochromane x-fold>potency cellular” value in assay [2] (Table 3) is listed as greater than 1.8.
On to `O=C1CN(c2c(O)cc3c(c2F)C[C@H](NCCC2CCOC2)CS3)S(=O)(=O)N1` (stereo partly drawn) [Compound 114, 5-[(3S)-5-fluoro-7-hydroxy-3-{[2-(oxolan-3-yl)ethyl]amino}-3,4-dihydro-2H-1-benzothiopyran-6-yl]-1λ^6,2,5-thiadiazolidine-1,1,3-trione], for which the “Thiochromane x-fold>potency biochemical” value in assay [1] (Table 3) is listed as 6.0. For the same molecule, the IC50 was less than 10 nM in assay [1] (setting [4]) and 10 to 100 nM in assay [3]. The half-maximal effective concentration (EC50) in assay [2] (setting [5]) and in assay [2] (setting [7]) was 1780 nM throughout. In addition, in assay [2] (Table 3), the “Thiochromane x-fold>potency cellular” value is on record as 12.7.
In the case of `O=C1CN(c2c(O)cc3c(c2F)C[C@H](NCC2CC(c4ccccc4)C2)CS3)S(=O)(=O)N1` (stereo partly drawn) [Compound 135, 5-[(3S)-5-fluoro-7-hydroxy-3-{[(3-phenylcyclobutyl)methyl]amino}-3,4-dihydro-2H-1-benzothiopyran-6-yl]-1λ^6,2,5-thiadiazolidine-1,1,3-trione], in assay [1] (Table 3), the “Thiochromane x-fold>potency biochemical” value amounted to 1.9. For the same molecule, the IC50 in assay [1] (setting [4]) was less than 10 nM; in assay [3], 10 to 100 nM. Moreover, the 50% effective concentration (EC50) in assay [2] (setting [5]) and in assay [2] (setting [7]) was 688 nM each time. Also, the “Thiochromane x-fold>potency cellular” value in assay [2] (Table 3) is listed as greater than 72.7.
Regarding `O=C1CN(c2c(O)cc3c(c2F)C[C@H](NCCCOCC(F)F)CS3)S(=O)(=O)N1` [Compound 137, 5-[(3S)-3-{[3-(2,2-difluoroethoxy)propyl]amino}-5-fluoro-7-hydroxy-3,4-dihydro-2H-1-benzothiopyran-6-yl]-1λ^6,2,5-thiadiazolidine-1,1,3-trione], the “Thiochromane x-fold>potency biochemical” value in assay [1] (Table 3) is listed as 1.1. The IC50 in assay [1] (setting [6]) was 21 nM; in assay [1] (setting [4]), 10 to 100 nM; in assay [3] it was 10 to 100 nM. The EC50 in assay [2] (setting [5]) and in assay [2] (setting [7]) was greater than 50000 nM in each case. Besides, in assay [2] (Table 3), the “Thiochromane x-fold>potency cellular” value was roughly 1.0.
In the case of `O=C1CN(c2c(O)cc3c(c2F)C[C@H](NCC2C4CCCC42)CS3)S(=O)(=O)N1` (mixture of isomers) [Compound 138, 5-[(3S)-3-({[(1RS,5SR)-bicyclo[3.1.0]hexan-6-yl]methyl}amino)-5-fluoro-7-hydroxy-3,4-dihydro-2H-1-benzothiopyran-6-yl]-1λ^6,2,5-thiadiazolidine-1,1,3-trione], the “Thiochromane x-fold>potency biochemical” value in assay [1] (Table 3) worked out at 2.0. Also, the half-inhibitory concentration (IC50) in assay [1] (setting [4]) and in assay [3] was 10 to 100 nM in each case. Further, the half-maximal effective concentration (EC50) in assay [2] (setting [5]) and in assay [2] (setting [7]) was 1480 nM in each case. For the same molecule, the “Thiochromane x-fold>potency cellular” value in assay [2] (Table 3) is listed as greater than 33.8.
Regarding `CC(F)(F)CCCN[C@@H]1CSc2cc(O)c(N3CC(=O)NS3(=O)=O)c(F)c2C1` [Compound 129, 5-{(3S)-3-[(4,4-difluoropentyl)amino]-5-fluoro-7-hydroxy-3,4-dihydro-2H-1-benzothiopyran-6-yl}-1λ^6,2,5-thiadiazolidine-1,1,3-trione], the IC50 in assay [1] (setting [4]) and in assay [3] was less than 10 nM throughout. In assay [2] (setting [5]), the EC50 came out at 589 nM.

A word on the IC50: it is the concentration needed to halve the response being measured. As a reminder, the EC50 is the concentration needed to bring the measured effect to its halfway point.
